In article PMC4588179, “Antifungal Activity of 14-Helical β-Peptides against Planktonic Cells and Biofilms of Candida Species” (Pharmaceuticals, 2015):

What was measured:
[1] = RP-HPLC retention time as measure of β-peptide hydrophobicity; type: physicochemical; details: chromatographic, analytical RP-HPLC, C18 (Waters X-bridge, 4.6 mm × 250 mm), gradient 20%–80% CH3CN in water with 0.1% TFA over 5–35 min, 1 mL/minute, 0.5 to 1 mg/mL, 50 µL injected; mean ± standard deviation of triplicate measurements
Excerpt: β-peptides were produced by microwave-assisted Fmoc synthesis at 20−40 μmol scales and purified by RP-HPLC using a C18 column. MALDI mass spectrometry was used to validate the mass of each peptide as described previously. Retention times determined by C18 RP-HPLC were used as a measure of the relative hydrophobicity of the β-peptides (Table 1). This approach has been used previously by our group and others to assess the relative hydrophobicity of different peptide structures. Preliminary antifungal activity and mammalian toxicity evaluation were reported previously for β-peptides 1–16 as planktonic MIC against C. albicans and percent hemolysis at the MIC, respectively.
Hydrophobicity of 14-helical β-peptides was characterized by measuring retention times with an analytical RP-HPLC using a C18 column (Waters, X-bridge, column dimensions 4.6 mm × 250 mm, Milford, MA, USA). The β-peptide solutions (0.5 to 1 mg/mL, 50 µL) were injected into the HPLC at a flow rate of 1 mL/minute. Retention time was characterized in triplicate with a gradient of 20%–80% CH3CN in water containing 0.1% TFA over 5–35 min.

[2] = test system: human red blood cells (hRBCs); assay: Hemolysis of human red blood cells; type: cell-based; details: red cells of human
Protocol: Table S1. Hemolysis of β-peptide 1-16, concentration of β-peptid e needed for 50% lysis of human red blood cells (hRBCs)
Peptide # Peptide Concentration at 50% Hemolysis a (HC50, µg/mL) […]
a Hemolysis assays were perfor med as previously indicated in Lee, M.R. et al., ACS Chem. Biol. (2014). Briefly, equal volumes of 2-fold dilutions of β-peptides in tris-buffered saline (TBS) were incubated with hRBCs for an hour at 37 °C. Supernatants were transferred to a new plate and absorbance was measured at 405 nm.
% hemolysis was calculated relative to positive lysis control and the concentration of peptide needed for 50% hemolysis was recorded as HC50 for that peptide. Values reported are average measurements from three independent experiments of duplicates each and the error denoted is the standard deviation. Concentration dependent hemolysis graphs can be found in Lee, M.R. et al., ACS Chem. Biol. (2014).

[3] = test system: C. albicans SC5314 biofilm formation; assay: Biofilm formation in the presence of β-peptides, XTT; type: cell-based, Candida albicans; details: 10^6 cells/mL incubated with 2-fold dilutions of β-peptide, 37 °C, 48 h, washed, 10% or less metabolic activity vs untreated control
Protocol: C. albicans, C. glabrata, C. tropicalis, and C. parapsilosis biofilm formation in the presence of β-peptide was evaluated using a procedure used previously. Briefly, 100 μL of overnight cultures of C. albicans SC5314, C. glabrata, C. parapsilosis, and C. tropicalis adjusted to 2 × 10^6 cells/mL was added to 100 μL of two-fold serially diluted β-peptide in a 96-well plates. Peptide-free controls and cell and peptide-free controls were included for each peptide assayed and the plates were incubated at 37 °C for 48 h. After 48 h, biofilms were washed with PBS to remove non-adherent cells and the metabolic activity of biofilms grown in the presence of β-peptide was determined using XTT.
For evaluation of metabolic activities of planktonic cells and biofilms in susceptibility testing in 96-well plates, 100 μL of XTT solution was added to every well and plates were incubated at 37 °C in the dark for 1.5 h for C. albicans and 2.5 h for C. glabrata, C. parapsilosis and C. tropicalis. At the end of the incubation, 75 μL of supernatant from wells were transferred to a new plate and absorbance at 490 nm was measured. The percent metabolic activity was calculated as: Metabolic Activity (%)= (A490− A490background)/A490cell control− A490background ×100 where A490 , A490cell control , and A490background are the average absorbance values of wells containing a specific concentration of β-peptide, cell control wells without β-peptide, and media only wells, respectively. Experiments were performed in triplicate and repeated on at least two different days.

SMILES | Hydrophobicity (HPLC Retention Time, min) [1] | Peptide Concentration at 50% Hemolysis (HC50) [2] | MIC, Biofilm Formation (C. albicans) [3]
CC(C)[C@@H](CC(=O)N[C@@H](CCCCN)CC(=O)N[C@H]1CCCC[C@@H]1C(=O)N[C@H](CC(=O)N[C@@H](CCCCN)CC(=O)N[C@H]1CCCC[C@@H]1C(=O)N[C@H](CC(=O)N[C@@H](CCCCN)CC(N)=O)C(C)C)C(C)C)NC(=O)[C@H]1CCCC[C@@H]1NC(=O)C[C@@H](N)Cc1ccc(O)cc1 [Peptide 12] | 25.7 ± 0.1 min | 12 ± 6 µg/mL | –
CC[C@@H](CC(=O)N[C@@H](CCCNC(=N)N)CC(N)=O)NC(=O)[C@H]1CCCC[C@@H]1NC(=O)C[C@H](CCCNC(=N)N)NC(=O)C[C@H](CC)NC(=O)[C@H]1CCCC[C@@H]1NC(=O)C[C@H](CCCNC(=N)N)NC(=O)C[C@H](CC)NC(=O)[C@H]1CCCC[C@@H]1N [Peptide 3] | 23.2 ± 0.1 min | – | 32 µg/mL
CC(C)[C@@H](CC(=O)N[C@@H](CCCNC(=N)N)CC(=O)N[C@H]1CCCC[C@@H]1C(=O)N[C@H](CC(=O)N[C@@H](CCCNC(=N)N)CC(=O)N[C@H]1CCCC[C@@H]1C(=O)N[C@H](CC(=O)N[C@@H](CCCNC(=N)N)CC(N)=O)C(C)C)C(C)C)NC(=O)[C@H]1CCCC[C@@H]1NC(=O)C[C@@H](N)Cc1ccc(O)cc1 [Peptide 13] | 26.5 ± 0.2 min | 11 ± 2 µg/mL | –
N=C(N)NCCC[C@@H](CC(N)=O)NC(=O)[C@H]1CCCC[C@@H]1NC(=O)[C@H]1CCCC[C@@H]1NC(=O)C[C@H](CCCNC(=N)N)NC(=O)[C@H]1CCCC[C@@H]1NC(=O)[C@H]1CCCC[C@@H]1NC(=O)C[C@H](CCCNC(=N)N)NC(=O)[C@H]1CCCC[C@@H]1NC(=O)[C@H]1CCCC[C@@H]1NC(=O)C[C@@H](N)Cc1ccc(O)cc1 [Peptide 15] | 24.6 ± 0.2 min | 73 ± 40 µg/mL | –
CC(C)[C@@H](CC(=O)N[C@@H](CCCNC(=N)N)CC(N)=O)NC(=O)[C@H]1CCCC[C@@H]1NC(=O)C[C@H](CCCNC(=N)N)NC(=O)C[C@@H](NC(=O)[C@H]1CCCC[C@@H]1NC(=O)C[C@H](CCCNC(=N)N)NC(=O)C[C@@H](NC(=O)[C@H]1CCCC[C@@H]1N)C(C)C)C(C)C [Peptide 5] | 25.4 ± 0.1 min | – | 8 µg/mL
NCCCC[C@@H](CC(N)=O)NC(=O)C[C@H](Cc1ccccc1)NC(=O)[C@H]1CCCC[C@@H]1NC(=O)C[C@H](CCCCN)NC(=O)C[C@H](Cc1ccccc1)NC(=O)[C@H]1CCCC[C@@H]1NC(=O)C[C@H](CCCCN)NC(=O)C[C@H](Cc1ccccc1)NC(=O)[C@H]1CCCC[C@@H]1NC(=O)C[C@@H](N)Cc1ccc(O)cc1 [Peptide 16] | 27.4 ± 0.2 min | 3 ± 1 µg/mL | –
CC[C@@H](CC(=O)N[C@@H](CCCNC(=N)N)CC(=O)N[C@H]1CCCC[C@@H]1C(=O)N[C@@H](CC)CC(=O)N[C@@H](CCCNC(=N)N)CC(=O)N[C@H]1CCCC[C@@H]1C(=O)N[C@@H](CC)CC(=O)N[C@@H](CCCNC(=N)N)CC(N)=O)NC(=O)[C@H]1CCCC[C@@H]1NC(=O)C[C@@H](N)Cc1ccc(O)cc1 [Peptide 11] | 24.2 ± 0.1 min | 79 ± 8 µg/mL | –
C[C@@H](CC(=O)N[C@@H](CCCCN)CC(N)=O)NC(=O)[C@H]1CCCC[C@@H]1NC(=O)C[C@H](CCCCN)NC(=O)C[C@H](C)NC(=O)[C@H]1CCCC[C@@H]1NC(=O)C[C@H](CCCCN)NC(=O)C[C@H](C)NC(=O)[C@H]1CCCC[C@@H]1N [Peptide 1] | 19.3 ± 0.1 min | – | –
NCCCC[C@@H](CC(N)=O)NC(=O)[C@H]1CCCC[C@@H]1NC(=O)[C@H]1CCCC[C@@H]1NC(=O)C[C@H](CCCCN)NC(=O)[C@H]1CCCC[C@@H]1NC(=O)[C@H]1CCCC[C@@H]1NC(=O)C[C@H](CCCCN)NC(=O)[C@H]1CCCC[C@@H]1NC(=O)[C@H]1CCCC[C@@H]1N [Peptide 6] | 23.1 ± 0.2 min | – | –
N=C(N)NCCC[C@@H](CC(N)=O)NC(=O)[C@H]1CCCC[C@@H]1NC(=O)[C@H]1CCCC[C@@H]1NC(=O)C[C@H](CCCNC(=N)N)NC(=O)[C@H]1CCCC[C@@H]1NC(=O)[C@H]1CCCC[C@@H]1NC(=O)C[C@H](CCCNC(=N)N)NC(=O)[C@H]1CCCC[C@@H]1NC(=O)[C@H]1CCCC[C@@H]1N [Peptide 7] | 23.8 ± 0.1 min | – | 16 µg/mL
C[C@@H](CC(=O)N[C@@H](CCCCN)CC(=O)N[C@H]1CCCC[C@@H]1C(=O)N[C@@H](C)CC(=O)N[C@@H](CCCCN)CC(=O)N[C@H]1CCCC[C@@H]1C(=O)N[C@@H](C)CC(=O)N[C@@H](CCCCN)CC(N)=O)NC(=O)[C@H]1CCCC[C@@H]1NC(=O)C[C@@H](N)Cc1ccc(O)cc1 [Peptide 9] | 20.4 ± 0.2 min | > 400 µg/mL | –
NCCCC[C@@H](CC(N)=O)NC(=O)[C@H]1CCCC[C@@H]1NC(=O)[C@H]1CCCC[C@@H]1NC(=O)C[C@H](CCCCN)NC(=O)[C@H]1CCCC[C@@H]1NC(=O)[C@H]1CCCC[C@@H]1NC(=O)C[C@H](CCCCN)NC(=O)[C@H]1CCCC[C@@H]1NC(=O)[C@H]1CCCC[C@@H]1NC(=O)C[C@@H](N)Cc1ccc(O)cc1 [Peptide 14] | 24.0 ± 0.2 min | 106 ± 37 µg/mL | –
CC[C@@H](CC(=O)N[C@@H](CCCCN)CC(=O)N[C@H]1CCCC[C@@H]1C(=O)N[C@@H](CC)CC(=O)N[C@@H](CCCCN)CC(=O)N[C@H]1CCCC[C@@H]1C(=O)N[C@@H](CC)CC(=O)N[C@@H](CCCCN)CC(N)=O)NC(=O)[C@H]1CCCC[C@@H]1NC(=O)C[C@@H](N)Cc1ccc(O)cc1 [Peptide 10] | 23.5 ± 0.1 min | 149 ± 20 µg/mL | –
CC[C@@H](CC(=O)N[C@@H](CCCCN)CC(N)=O)NC(=O)[C@H]1CCCC[C@@H]1NC(=O)C[C@H](CCCCN)NC(=O)C[C@H](CC)NC(=O)[C@H]1CCCC[C@@H]1NC(=O)C[C@H](CCCCN)NC(=O)C[C@H](CC)NC(=O)[C@H]1CCCC[C@@H]1N [Peptide 2] | 22.5 ± 0.2 min | – | 64 µg/mL
NCCCC[C@@H](CC(N)=O)NC(=O)C[C@H](Cc1ccccc1)NC(=O)[C@H]1CCCC[C@@H]1NC(=O)C[C@H](CCCCN)NC(=O)C[C@H](Cc1ccccc1)NC(=O)[C@H]1CCCC[C@@H]1NC(=O)C[C@H](CCCCN)NC(=O)C[C@H](Cc1ccccc1)NC(=O)[C@H]1CCCC[C@@H]1N [Peptide 8] | 26.2 ± 0.2 min | – | 8 µg/mL
